Laboratory results as given in ChEMBL document CHEMBL1201862, “PubChem BioAssay data set” (2004).
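Where inhibition never reached the appropriate level, the endpoint shown equals the highest concentration tested. Otherwise, values were interpolated linearly from a five-concentration, 48-hour dose response in 96-well plates. Here, GI50 denotes the concentration required for 50% inhibition of growth.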 Activity calls are given as the source filed them. No stated cut-off is given here; in the data, active = GI50 up to about 1.1 µM and inactive = higher.

Key:
Test in all cases: NCI anticancer screen, dose series, 48 h
[1] = system: SNB-19
[2] = system: LXFL 529
[3] = system: SK-OV-3
[4] = system: NCI-H23
[5] = system: HOP-92
[6] = system: OVCAR-4
[7] = system: OVCAR-3
[8] = system: CCRF-CEM
[9] = system: SK-MEL-2
[10] = system: DMS-114
[11] = system: A549
[12] = system: COLO 205
[13] = system: SW-620
[14] = system: NCI-H522
[15] = system: SF-268
[16] = system: SF-295
[17] = system: A498
[18] = system: SN12C
[19] = system: DU-145
[20] = system: MDA-MB-435

Measured: GI50

COc1ccc(NC(=O)CC/C(CC(=O)C(C)(C)C)=N\NC(=O)C(=O)NN)cc1
inactive: [1] > 100 µM | [2] > 100 µM | [3] > 100 µM | [4] > 100 µM | [5] 56.5 µM | [6] > 100 µM | [7] > 100 µM | [8] > 100 µM | [9] > 100 µM | [10] > 100 µM | [11] > 100 µM | [12] > 100 µM | [13] > 100 µM | [14] 44.2 µM | [15] > 100 µM | [16] > 100 µM | [17] > 100 µM | [18] > 100 µM

N#CC1(Cc2ccccc2[N+](=O)[O-])c2ccccc2C2C(N1C(=O)c1ccccc1)C2(Cl)Cl (stereo not given)
inactive: [1] > 100 µM | [2] > 100 µM | [3] > 100 µM | [4] > 100 µM | [5] > 100 µM | [6] 13.2 µM | [7] > 100 µM | [8] > 100 µM | [9] > 100 µM | [10] > 100 µM | [11] > 100 µM | [12] > 100 µM | [13] > 100 µM | [14] > 100 µM | [15] > 100 µM | [16] > 100 µM | [17] 78 µM | [18] > 100 µM

C[N+](C)(C)CC(=O)N/N=C(\C(=O)Nc1ccc(Cl)cc1)C1C(=O)N(c2ccccc2)N=C1N (stereo not given)
inactive: [1] > 100 µM | [2] > 100 µM | [3] > 100 µM | [4] > 100 µM | [5] > 100 µM | [6] > 100 µM | [7] > 100 µM | [8] > 100 µM | [9] > 100 µM | [10] > 100 µM | [11] > 100 µM | [12] > 100 µM | [13] > 100 µM | [14] > 100 µM | [15] > 100 µM | [17] > 100 µM | [18] > 100 µM

O=c1[nH]cnc2c(COCCO)c[nH]c12
inactive: [1] > 100 µM | [2] > 100 µM | [3] > 100 µM | [4] > 100 µM | [5] > 100 µM | [6] > 100 µM | [7] > 100 µM | [8] > 100 µM | [9] > 100 µM | [10] > 100 µM | [12] > 100 µM | [13] > 100 µM | [14] > 100 µM | [15] > 100 µM | [16] > 100 µM | [17] > 100 µM | [18] > 100 µM

CCOC(=O)c1c2ccc(/C=C/C(=O)OC)ccc-2c(C(=O)OCC)c1N
inactive: [1] > 100 µM | [2] > 100 µM | [3] > 100 µM | [4] > 100 µM | [5] > 100 µM | [6] > 100 µM | [7] > 100 µM | [8] > 100 µM | [9] > 100 µM | [10] > 100 µM | [11] > 100 µM | [12] > 100 µM | [13] > 100 µM | [14] > 100 µM | [15] 2.11 µM | [16] > 100 µM | [17] 6.52 µM

CSC(=Nc1nnc(-c2ccc([N+](=O)[O-])cc2)s1)SC
inactive: [1] 23.9 µM | [2] 37 µM | [3] 27.6 µM | [4] 27.8 µM | [5] 9.25 µM | [6] 45.8 µM | [7] 57.3 µM | [8] > 100 µM | [9] 26.7 µM | [10] 25.9 µM | [19] > 100 µM | [11] 46.8 µM | [12] > 100 µM | [13] > 100 µM | [20] > 67.1 µM | [14] 15.5 µM | [15] 16.7 µM | [16] 18.5 µM | [17] 31.4 µM | [18] 52.2 µM

O=C(Nc1cc(Cl)cc(Cl)c1)/C(Cc1nc2ccccc2nc1O)=N/NC(=O)c1ccncc1
inactive: [1] > 100 µM | [2] > 100 µM | [3] > 100 µM | [5] 14.4 µM | [6] > 100 µM | [7] > 100 µM | [8] > 100 µM | [9] > 100 µM | [10] > 100 µM | [11] > 100 µM | [12] > 100 µM | [13] > 100 µM | [16] > 100 µM | [17] > 100 µM

O=C(/C=C/c1ccc(Cl)cc1)c1ccc(Cl)c(Cl)c1
inactive: [1] 23.7 µM | [2] 18.9 µM | [3] 26.4 µM | [4] 9.4 µM | [5] > 10 µM | [6] 26.4 µM | [7] 21.7 µM | [8] 16.2 µM | [9] 23.4 µM | [10] 23.6 µM | [11] 23.7 µM | [12] > 10 µM | [13] 5.41 µM | [14] 18.8 µM | [15] 20.7 µM | [16] 35.2 µM | [17] 34.4 µM | [18] 9.1 µM

CCCCCCCC(=O)OCC1OC(n2cc(F)c(=O)[nH]c2=O)C(NC(=O)OCc2ccccc2)C(O)C1O (stereo not given)
inactive: [1] 53.3 µM | [2] 31.3 µM | [3] > 100 µM | [4] > 100 µM | [5] 23.8 µM | [6] > 100 µM | [7] > 100 µM | [8] 26.5 µM | [9] 20.4 µM | [10] 41.6 µM | [11] > 100 µM | [12] 37.8 µM | [13] > 100 µM | [14] 26.2 µM | [15] 46.9 µM | [16] > 100 µM | [17] > 100 µM | [18] 32.9 µM

COC1(C)Cc2c(c(C)c(O)c3c2C(=O)C=C(Cl)C3=O)O1 (stereo not given)
inactive: [1] > 100 µM | [2] 15.1 µM | [3] > 100 µM | [4] 66.8 µM | [5] 18.9 µM | [6] 41.3 µM | [7] 44.2 µM | [8] 3.39 µM | [9] > 84.1 µM | [10] 28 µM | [19] 91.4 µM | [11] > 100 µM | [12] 18.2 µM | [13] 19.8 µM | [20] > 100 µM | [14] 16.9 µM | [15] > 88.1 µM | [16] > 100 µM | [17] > 100 µM | [18] > 65.6 µM

COC(=O)[C@]12CCC(C)[C@H](C)[C@H]1C1=CCC3[C@@]4(C)CC[C@H](OC(C)=O)C(C)(C)C4CC[C@@]3(C)C1(C)C(O)C2 (stereo not given in full)
inactive: [1] > 100 µM | [2] 77.3 µM | [3] > 100 µM | [4] > 100 µM | [5] > 100 µM | [6] > 100 µM | [7] > 100 µM | [8] 89.3 µM | [9] > 100 µM | [10] 61.7 µM | [11] > 100 µM | [12] > 100 µM | [13] > 100 µM | [14] > 100 µM | [15] > 100 µM | [16] > 100 µM | [17] > 100 µM | [18] > 100 µM
